This is an account of results in PubChem BioAssay (NCI).

The structures appear in SMILES notation.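 Dose response: 5 concentrations. Exposure: 48 h. Format: 96-well plates. Endpoint: linear interpolation; highest concentration if not reached. GI50: concentration for 50% inhibition of growth. TGI denotes the concentration required for complete inhibition of growth.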

Test systems include MDA-N; KM20L2 colon; M19-MEL melanoma; DLD-1 colon; LXFL 529 NSCLC; XF 498 CNS; DMS 114 small cell lung; RXF-631 renal; HOP-18 NSCLC.
Common to all, as to test: NCI tumour cell line growth inhibition, 48 h

In the assay on MDA-N, `O=C1C=CC(=O)N1c1ccc2c(c1)Cc1cc(NC(=O)C(F)(F)F)ccc1-2` displayed a TGI of 32.5 µM.

With `N#CC(c1ccc(Cl)cc1)c1cccc(Cl)n1` (stereo unspecified), the TGI in the assay on KM20L2 colon is greater than 100 µM; with M19-MEL melanoma, greater than 100 µM; in the assay with DLD-1 colon, greater than 100 µM; with LXFL 529 NSCLC, greater than 100 µM; in the assay with XF 498 CNS it was 78.7 µM.

On to `CC1(C)CC2=NOS3=C2C(=NO3)C1c1ccccn1` (stereo unspecified), for which, in the assay with MDA-N, the TGI was 92.9 µM.

As for `CO/C=C/c1cc2c(cc1C(OC)OC)OCO2`, the TGI is greater than 100 µM in the assay on KM20L2 colon; greater than 100 µM in the assay with DMS 114 small cell lung; greater than 100 µM in the assay on RXF-631 renal; greater than 100 µM with M19-MEL melanoma; greater than 100 µM in the assay with DLD-1 colon; 84.8 µM with XF 498 CNS.

For the compound `Cc1ccc(C2=NN(C)COC2C(F)(F)F)cc1` (stereo unspecified), the TGI with KM20L2 colon, in the assay on DMS 114 small cell lung, with RXF-631 renal, in the assay with M19-MEL melanoma, in the assay on DLD-1 colon and with HOP-18 NSCLC was greater than 100 µM each time. The same compound registered a TGI in the assay with LXFL 529 NSCLC greater than 100 µM.

In the case of `CCC12CC[C@H](C#N)N3CCc4c(n(c5ccccc45)C(=O)C1)C32` (stereo partly specified), the TGI is 35 µM with KM20L2 colon; 45.1 µM in the assay with RXF-631 renal; 73.2 µM in the assay on M19-MEL melanoma; 43.8 µM with DLD-1 colon; 33.7 µM with LXFL 529 NSCLC; 36.5 µM in the assay on XF 498 CNS.

Compound `OCC1OC(O)C(N=Cc2ccc3c(c2)OCO3)C(O)C1O` (stereo unspecified) showed a TGI with MDA-N greater than 100 µM.

In the case of `CCC(=O)Nc1ccc2c(c1)CN1C(=O)c3ccccc3C1=N2`, in the assay with MDA-N, the GI50 is greater than 100 µM and the TGI was greater than 100 µM.

For the compound `O=C(O/N=C1/CCC/C1=C\c1ccccc1)c1ccccc1`, the TGI in the assay with KM20L2 colon is greater than 100 µM; in the assay on DMS 114 small cell lung, greater than 100 µM; with DLD-1 colon it was greater than 100 µM; with HOP-18 NSCLC, greater than 100 µM; in the assay on LXFL 529 NSCLC, 89.9 µM.

`COc1ccc(C2c3cc4c(cc3OC(O)(CO)C2C(=O)O)OCO4)c(OC)c1OC` (stereo unspecified) (tested in a mixture with another compound): the TGI in the assay on KM20L2 colon, in the assay on DMS 114 small cell lung, with M19-MEL melanoma, in the assay with DLD-1 colon, in the assay with HOP-18 NSCLC and in the assay with XF 498 CNS was greater than 100 µM throughout.

In the assay on MDA-N, `CC(=O)NC(Cc1c[nH]c2ccccc12)C(=O)O` (stereo unspecified) returned a TGI greater than 100 µM.

In the case of `CC1CC(C)C(=O)C(C(=O)CC2CC(=O)NC2=O)C1` (stereo unspecified), the TGI with KM20L2 colon, in the assay on DMS 114 small cell lung, with RXF-631 renal, in the assay with M19-MEL melanoma, in the assay with DLD-1 colon and in the assay on HOP-18 NSCLC was greater than 100 µM each time. The TGI in the assay with LXFL 529 NSCLC and in the assay on XF 498 CNS was greater than 100 µM throughout.

`N#Cc1c(C(N)=O)ncn1Cc1ccccc1`: the TGI in the assay with KM20L2 colon, in the assay with DMS 114 small cell lung, with RXF-631 renal, with M19-MEL melanoma, in the assay with DLD-1 colon and in the assay with HOP-18 NSCLC was greater than 100 µM each time. Besides, the TGI with LXFL 529 NSCLC and in the assay on XF 498 CNS was greater than 100 µM throughout.

On to `Cn1cc(C(=O)/C(Cl)=C(\Cl)C(=O)O)c2ccccc21`, for which the TGI with KM20L2 colon, in the assay on DMS 114 small cell lung, with RXF-631 renal, with M19-MEL melanoma, with DLD-1 colon and in the assay with XF 498 CNS was greater than 100 µM in each case.

For `O=C(Nc1ccc(N=Nc2ccccc2)cc1)Sc1ccccc1C(=O)O`, the TGI in the assay with KM20L2 colon and in the assay on LXFL 529 NSCLC was greater than 100 µM throughout.

For `CC(=O)Oc1cc2c(=O)oc3c(OC(C)=O)c(OC(C)=O)c(OC(C)=O)c4c(=O)oc(c1OC(C)=O)c2c34`, the TGI with KM20L2 colon was greater than 100 µM; in the assay on DMS 114 small cell lung it was 58 µM; in the assay with RXF-631 renal, 78.5 µM; in the assay with M19-MEL melanoma, 40.6 µM; in the assay with DLD-1 colon, greater than 100 µM; in the assay on HOP-18 NSCLC, greater than 100 µM. The TGI is greater than 100 µM in the assay with LXFL 529 NSCLC and 76.5 µM in the assay with XF 498 CNS.

On to `CC(=O)[CH-]C(C)=O.CC(=O)[CH-]C(C)=O.CC(=O)[CH-]C(C)=O.[Cl-].[Hf+4]`, for which, in the assay with KM20L2 colon, the GI50 is greater than 100 µM and the TGI is greater than 100 µM. For the same compound, in the assay on DMS 114 small cell lung, the GI50 was greater than 100 µM and the TGI was greater than 100 µM.

With `C[C@]12CC[C@@H]3c4ccc(OCC(=O)O)cc4CC[C@H]3[C@@H]1CCC2=O`, the TGI with MDA-N is greater than 100 µM.

Turning to `O=C1NC(=O)[C@H]2C3C=CC([C@@H]12)[C@@H]1C(=O)NC(=O)[C@H]31`, the TGI in the assay on MDA-N is greater than 100 µM.

For the compound `CCC[CH2][Sn]([CH2]CCC)([O]C(=O)c1cccc(F)c1F)[O][Sn]([CH2]CCC)([CH2]CCC)[O]C(=O)c1cccc(F)c1F`, the GI50 with KM20L2 colon is 0.727 µM; in the assay on DMS 114 small cell lung, 0.0627 µM; in the assay on MDA-N, 0.223 µM; with RXF-631 renal, 0.0409 µM; with M19-MEL melanoma, 0.141 µM; with DLD-1 colon, 0.182 µM. The GI50 in the assay with HOP-18 NSCLC is 0.551 µM; in the assay with LXFL 529 NSCLC, 0.0222 µM; in the assay with XF 498 CNS it was 0.173 µM. Also, the TGI was found to be 2.1 µM in the assay on KM20L2 colon; 0.204 µM in the assay on DMS 114 small cell lung; 1.16 µM in the assay on MDA-N; 0.398 µM with RXF-631 renal; 0.689 µM with M19-MEL melanoma; 0.744 µM in the assay with DLD-1 colon. For the same compound, the TGI in the assay on HOP-18 NSCLC is 1.51 µM; with LXFL 529 NSCLC, 0.157 µM; in the assay with XF 498 CNS, 0.314 µM.

`C/C(=N\[N+](C)(C)C)C(c1ccccc1)C1(c2ccccc2)C(c2ccccc2)=C1c1ccccc1` (stereo unspecified): the TGI with KM20L2 colon is greater than 100 µM; with M19-MEL melanoma, greater than 100 µM; in the assay on DLD-1 colon it was greater than 100 µM; in the assay with XF 498 CNS, 50.4 µM.
